According to publication PMC5259791 (Scientific Reports, 2017):

Columns and labels:
PPARα = target: T1, PPARα (Homo sapiens, UniProt Q07869); experiment: SPR on immobilized PPARα; type: binding
T1 construct: purchased Tebu-Bio
T1 sequence (Q07869 1-468): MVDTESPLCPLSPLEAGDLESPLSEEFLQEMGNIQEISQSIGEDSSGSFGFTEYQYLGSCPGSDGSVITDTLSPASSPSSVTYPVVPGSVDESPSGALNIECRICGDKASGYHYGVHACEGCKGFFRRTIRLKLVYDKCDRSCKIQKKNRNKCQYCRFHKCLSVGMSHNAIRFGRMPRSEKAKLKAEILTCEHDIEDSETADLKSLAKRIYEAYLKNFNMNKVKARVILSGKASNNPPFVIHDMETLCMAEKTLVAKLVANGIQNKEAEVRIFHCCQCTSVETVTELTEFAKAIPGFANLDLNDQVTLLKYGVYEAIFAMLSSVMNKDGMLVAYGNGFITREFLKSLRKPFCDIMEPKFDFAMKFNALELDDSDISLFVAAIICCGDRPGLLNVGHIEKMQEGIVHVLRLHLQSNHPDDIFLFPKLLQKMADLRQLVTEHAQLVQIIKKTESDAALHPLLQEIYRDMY
Description: (§1) In order to evaluate if 1 acts as a selective ligand of PPARγ, SPR analyses were also carried out on immobilized PPARα and PPARδ, two proteins structurally and functionally related to PPARγ[23][24].
(§2) SPR analyses were carried out on a BIACORE 3000 instrument (GE-Healthcare). PPARα, PPARγ, PPARδ and HSP60 surfaces were prepared on research−grade CM5 sensor chips (GE Healthcare). Proteins (100 μg/ml in 10 mM CH3COONa, pH 5.0) were immobilized using a standard amine−coupling protocol, to obtain densities of 3–5 kRU. Testing compounds were dissolved in 100% DMSO to obtain 4 mM solutions, and then diluted in PBS containing variable amounts of DMSO, achieving a final DMSO concentration of 0.1%. For each molecule a five−point concentration series (25 nM, 65 nM, 150 nM, 400 nM, 1 μM) was set up. SPR experiments and data elaboration were carried out as reported elsewhere.

PPARγ1 C285A mutant = target: T2, PPARγ1 C285A mutant (Homo sapiens, UniProt P37231, C313A); experiment: PPRE-luciferase transactivation in HEK293T cells co-transfected with PPARγ1 C285A mutant; type: cell-based; settings: C285A mutant versus wild type receptor, 24 h
T2 construct: expressed in transfected cells; host or cells: HEK293T (transient); vectors from Takuma Shiraki
T2 sequence (P37231 1-477 isoform P37231-2 C285A): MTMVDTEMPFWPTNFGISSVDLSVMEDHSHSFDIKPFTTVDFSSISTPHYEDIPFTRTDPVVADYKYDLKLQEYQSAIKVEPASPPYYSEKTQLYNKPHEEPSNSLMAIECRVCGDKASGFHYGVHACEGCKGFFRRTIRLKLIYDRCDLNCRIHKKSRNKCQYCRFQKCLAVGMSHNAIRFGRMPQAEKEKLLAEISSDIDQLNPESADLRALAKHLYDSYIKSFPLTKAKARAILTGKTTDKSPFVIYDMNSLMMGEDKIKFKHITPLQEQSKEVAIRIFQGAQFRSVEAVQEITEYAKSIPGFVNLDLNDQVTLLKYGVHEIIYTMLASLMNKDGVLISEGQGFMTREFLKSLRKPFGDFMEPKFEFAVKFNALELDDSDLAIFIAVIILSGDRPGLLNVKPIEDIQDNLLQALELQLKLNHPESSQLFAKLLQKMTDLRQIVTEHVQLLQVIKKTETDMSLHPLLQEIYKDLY
Source text: (b) Human HEK293T cells were co-transfected with the PPRE-luciferase reporter gene and the wild-type PPARγ1 or its mutant version (C285A).
HEK293 cells that stably express an exogenous Flag-tagged PPARγ from a transfected PCDNA-3 vector carrying a complete PPARγ cDNA were used for transfection experiments. The PPRE-Luc plasmid contains a luciferase reporter gene under the transcriptional control of three copies of the PPRE (Peroxisome Proliferator Response Element) derived from Acyl-CoA oxidase gene fused upstream to the herpes simplex thymidine kinase (TK) promoter, as described. […] Transient transfection assays were carried out as described in ref. [44]. […] In this case, the experiments were carried out into basal HEK293T cells and the RSV-β-Gal plasmid was used as control for transfection efficiency. […] The wild type and mutant PPARγ containing expression vectors were kindly provided by Dott. Takuma Shiraki. At least three independent experiments were performed for each transfection carried out in duplicate. Luciferase activity was normalized to β-galactosidase activity and reported as fold-induction.

PPARδ = target: T3, PPARδ (Homo sapiens, UniProt Q03181); experiment: SPR on immobilized PPARδ; type: binding
T3 construct: purchased Tebu-Bio
T3 sequence (Q03181 1-441): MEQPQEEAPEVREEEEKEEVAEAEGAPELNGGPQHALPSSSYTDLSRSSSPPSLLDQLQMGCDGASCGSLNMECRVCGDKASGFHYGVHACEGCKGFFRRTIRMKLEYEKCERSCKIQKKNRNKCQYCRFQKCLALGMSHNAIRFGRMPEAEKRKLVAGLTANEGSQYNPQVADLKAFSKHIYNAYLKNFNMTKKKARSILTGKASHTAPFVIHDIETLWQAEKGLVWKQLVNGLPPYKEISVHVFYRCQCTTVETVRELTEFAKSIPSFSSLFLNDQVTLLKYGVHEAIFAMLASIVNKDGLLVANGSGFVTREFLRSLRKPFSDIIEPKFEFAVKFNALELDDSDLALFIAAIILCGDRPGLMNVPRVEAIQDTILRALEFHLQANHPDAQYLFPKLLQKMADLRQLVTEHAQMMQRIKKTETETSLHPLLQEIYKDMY
Description: as §1, §2

Hsp60 = target: T4, Hsp60 (Homo sapiens, UniProt P10809); experiment: MS-based peptide mapping of Hsp60 incubated with 1; settings: trypsin digestion, LC-MS/MS
T4 construct: purchased Tebu-Bio
T4 sequence (P10809 27-573): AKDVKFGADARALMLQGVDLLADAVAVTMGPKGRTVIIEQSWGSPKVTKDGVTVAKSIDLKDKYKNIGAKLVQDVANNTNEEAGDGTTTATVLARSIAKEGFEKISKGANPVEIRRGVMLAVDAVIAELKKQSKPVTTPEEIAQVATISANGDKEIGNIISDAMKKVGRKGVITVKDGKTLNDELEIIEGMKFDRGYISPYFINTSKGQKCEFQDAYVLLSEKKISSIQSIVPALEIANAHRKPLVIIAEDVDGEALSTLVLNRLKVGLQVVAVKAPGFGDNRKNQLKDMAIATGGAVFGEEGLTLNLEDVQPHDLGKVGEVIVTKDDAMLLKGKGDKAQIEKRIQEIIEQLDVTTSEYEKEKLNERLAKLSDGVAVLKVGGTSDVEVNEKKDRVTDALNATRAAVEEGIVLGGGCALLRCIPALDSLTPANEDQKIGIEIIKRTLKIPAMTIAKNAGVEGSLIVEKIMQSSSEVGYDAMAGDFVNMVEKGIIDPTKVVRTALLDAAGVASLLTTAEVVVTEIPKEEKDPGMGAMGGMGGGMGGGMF
Description: PPARγ-LBD and Hsp60 were incubated with a 2:1 molar excess of 1 under stirring for 15 min in PBS at 37 °C. Eluted proteins were loaded on a mono-dimensional 12% SDS-PAGE, stained with Brilliant Blue G-Colloidal, reduced, and digested by trypsin. The resulting fragments were extracted and analyzed by LC-MS/MS using the same instrument and protocol described before. Peptide identification was performed by MS and MS/MS data using Mascot (Matrix Science) to interrogate the Swiss Prot non-redundant protein database.

PPARγ LBD = target: T5, PPARγ LBD (Homo sapiens, UniProt P37231); experiment: SPR on immobilized PPARγ LBD; type: binding
T5 construct: Recombinant human PPARγ-LBD, consisting of the region 195–477 of PPARγ; purchased Bertin-Pharma
T5 sequence (P37231 195-477 isoform P37231-2): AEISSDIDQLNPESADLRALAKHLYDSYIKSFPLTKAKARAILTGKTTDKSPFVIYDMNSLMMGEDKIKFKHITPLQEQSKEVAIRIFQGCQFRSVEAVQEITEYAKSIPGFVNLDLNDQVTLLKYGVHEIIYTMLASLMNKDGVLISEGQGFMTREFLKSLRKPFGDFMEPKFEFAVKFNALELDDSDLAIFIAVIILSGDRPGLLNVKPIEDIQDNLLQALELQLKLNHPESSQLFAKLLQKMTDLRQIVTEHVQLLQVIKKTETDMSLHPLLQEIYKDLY
Description: Conversely, no affinity of the diterpene towards Hsp60 was observed (Fig. 2c).
as §2

C=C1C(=O)C23CCC4C(C(=O)OC)CC(O)CC4(C)C2CCC1C3 (stereo not shown) [Compound 1, 15-ketoatractyligenin methyl ester]
interaction with PPARα (PPARα): only a weak interaction
time to complete dissociation of complex (PPARα; 1/PPARα complex): less than 50 s
Kd (PPARα; immobilized PPARα): 1320 ± 80 nM
luciferase activity with C285A mutant (PPARγ1 C285A mutant): even lower luciferase activity
binding to PPARδ (PPARδ): no significant binding
covalent modification of Hsp60 (Hsp60): no peptide covalently modified
Kd (PPARγ LBD): 39.2 ± 3.9 nM
